From patent US10478437B2, “Combination therapy to enhance the anticancer efficacy of platinum drugs” (University of Pittsburgh-of the Commonwealth System of …, priority 2014, dated 2019)
Read-outs that look alike come from different tables or passages of the source.

Experiments:
[1] = test system: cisplatin-resistant ovarian cancer cell line A2780cis; assay: CellTiter-Blue cell viability assay, compound alone or with cisplatin or carboplatin, 24 h; assay type: cell-based, human; details: for viability at 10 µM / viability at 20 µM / viability at 50 µM: Homo sapiens, A2780cis, read-out: survival (%) of cells with compound alone; for viability at 10 µM / viability at 20 µM / viability at 50 µM / survival (%) of cells with compound and cisplatin (20 μM) / Survival (%) of cells with compound and carboplatin (200 μM) / survival (%) of cells with compound alone: 24 h; for response in the CellTiter-Blue cell viability assay: in words
Procedure: Data were expressed as mean±standard deviation. A Student's t test was used for the comparisons between the treatment with the combination of analogs with cisplatin and with analogs alone. P<0.05 was considered statistically significant. Combination index was calculated using CompuSyn software. A value of 0.3-0.7 for the combination index indicates synergism, 0.1-0.3 indicates strong synergism, and <0.1 indicates very strong synergism (Chou, 2006).
To further validate the activity of the identified 11 active compounds (see FIG. 3), a CellTiter-Blue cell viability assay was performed with increasing concentrations (10 μM, 20 μM and 50 μM) of the disclosed compounds (see FIG. 4 and Table 5). Cisplatin resistant ovarian cancer cells (A2780cis) were treated with a disclosed compound alone, cisplatin alone or a combination of a compound with cisplatin for 24 h to determine the effects of the compounds on cell viability.
Analysis of the effect of the disclosed compounds with another platinum-containing compound, carboplatin, was performed. A2780cis cells were treated with carboplatin alone or with the combination of carboplatin and the disclosed compounds at indicated concentrations for 24 h followed by the analysis of cell viability.

[2] = test system: cisplatin-resistant ovarian cancer cell line A2780cis; assay: Caspase-3/7 activity assay (apoptotic cell death), compound alone or with cisplatin; assay type: cell-based, human; details: for caspase-3/7 activity (Lum), compound with cisplatin / caspase-3/7 activity (Lum), compound alone / caspase-3/7 activity (Lum) with compound and cisplatin (20 μM) / caspase-3/7 activity (Lum) with compound alone: 20 h; for activity in the screen (Caspase-3/7 activity and microscopic examination), active / inactive: alone or in the presence of cisplatin; for activity in the screen (Caspase-3/7 activity and microscopic examination), active / inactive / Caspase-3/7 activity upon combination with cisplatin compared to cisplatin alone or compound alone / activity in the Caspase-3/7 activity assay: in words; for activity in the Caspase-3/7 activity assay: possibly interference with the assay system; for caspase-3/7 activity (Lum) with compound and cisplatin (20 μM) / caspase-3/7 activity (Lum) with compound alone: Table 6; for caspase-3/7 activity (Lum) with compound alone: untreated cells 9 ± 1
Procedure: Cell proliferation was determined using a CyQUANT Direct Cell Proliferation Assay kit (Invitrogen), the activity of caspase-3/7 was measured using a Caspase-Glo 3/7 Assay Systems (Promega, Madison, Wis.), and the MTS calorimetric survival assay was performed using the CellTiter 96 AQueous One Solution Cell Proliferation Assay kit (Promega, Madison, Wis.), according to the manufacturer's instructions. The survival fractions were calculated after setting untreated control cells at 100%. The data were plotted and curve fitted using GraphPad Prism software. To quantify the number of cells with active caspase-3, cells were fixed with 4% paraformaldehyde (Electron microscopy sciences, Hatfield, Pa.), stained with Alexa Fluor-488 conjugated antibody against cleaved caspase-3 (Asp175) (Cell Signaling Technology, Danvers, Mass.) followed by flow cytometry. An FITC Annexin V Apoptosis Detection Kit (BD PharMingen, San Diego, Calif.) was used to quantify apoptotic cells, according to the manufacturer's instructions.
A Caspase-3/7 assay was performed to evaluate the activity of the 36 compounds of FIG. 1 in vitro in the cisplatin-resistant ovarian cancer cell line, A2780cis, alone or in the presence of cisplatin. A microscopic examination of apoptotic morphologic changes was also carried out right before the measurement of Caspase-3/7 activity, in order to confirm that the data on the activation of the Caspase-3/7 following treatment is consistent with morphological change and reflects cell death.

[3] = compound 10 μM, untreated cells = 100%
[4] = compound 20 μM, untreated cells = 100%
[5] = compound 50 μM, untreated cells = 100%
[6] = compound 10 μM + cisplatin 20 μM
[7] = compound 20 μM + cisplatin 20 μM
[8] = compound 50 μM + cisplatin 20 μM
[9] = Table 3, compound 20 μM with 20 μM of cisplatin
[10] = Table 1, compound 20 μM with 20 μM cisplatin
[11] = Table 1, compound 20 μM, mean ± S.D. of triplicates

Structure (SMILES)	viability at 10 µM [1, 3]	viability at 20 µM [1, 4]	viability at 50 µM [1, 5]	survival (%) of cells with compound and cisplatin (20 μM) [1, 6]	survival (%) of cells with compound and cisplatin (20 μM) [1, 7]	survival (%) of cells with compound and cisplatin (20 μM) [1, 8]	caspase-3/7 activity (Lum), compound with cisplatin [2, 9]	caspase-3/7 activity (Lum), compound alone ([2]; Table 3, compound 20 μM)	caspase-3/7 activity (Lum), compound alone ([2]; Table 4, compound 20 μM)	activity in the screen (Caspase-3/7 activity and microscopic examination), active / inactive [2]	caspase-3/7 activity (Lum), compound with cisplatin [2, 10]	caspase-3/7 activity (Lum), compound alone [2, 11]	other results
Cc1ccc(NC(=S)NC(=O)c2cccs2)nc1 [Compound 2-19]	97.3 ± 1.8%	95.9 ± 2.1%	95.1 ± 6.4%	100.4 ± 1.2%	85.4 ± 9.6%	53.2 ± 16.0%	50 ± 8 Lum	9 ± 1 Lum	9 ± 1 Lum	active			
O=c1c2ccccc2[nH]c(=S)n1Cc1cccnc1 [Compound 1-4]	95.9 ± 2.4%	95.6 ± 1.3%	91.8 ± 2.9%	89.8 ± 0.1%	61.2 ± 3.4%	20.9 ± 1.3%				active	93 ± 5 Lum	13 ± 1 Lum	caspase-3/7 activity (Lum), compound alone ([2]; Table 2, compound 20 μM): 13 ± 1 Lum; Caspase-3/7 activity upon combination with cisplatin compared to cisplatin alone or compound alone [2]: increase in Caspase-3/7 activity
O=c1c2ccccc2[nH]c(=S)n1Cc1ccccc1 [Compound 1-30]	95 ± 2.6%	95.4 ± 0.9%	98.1 ± 0.9%	73.4 ± 6.9%	52.4 ± 1.2%	53.2 ± 5.0%				active	111 ± 8 Lum	18 ± 2 Lum	caspase-3/7 activity (Lum), compound alone ([2]; Table 2, compound 20 μM): 18 ± 2 Lum; Caspase-3/7 activity upon combination with cisplatin compared to cisplatin alone or compound alone [2]: increase in Caspase-3/7 activity
O=C(NC(=S)Nc1ccccn1)c1ccccc1 [Compound 2-32]	97.2 ± 2.9%	96 ± 1.7%	81.8 ± 5.2%	102.7 ± 3.9%	64.9 ± 10.6%	33.4 ± 11.8%	4 ± 1 Lum	0 ± 1 Lum	0 ± 1 Lum	active			response in the CellTiter-Blue cell viability assay [1]: positive response; activity in the Caspase-3/7 activity assay [2]: lack of activity
COc1cc(-n2c(=S)[nH]c3ccccc3c2=O)c(Cl)cc1Cl [mdivi-1, reference compound]				87.4 ± 2.9%	39.2 ± 2.7%	26.3 ± 3.4%	80 ± 11 Lum	20 ± 3 Lum	20 ± 3 Lum		102 ± 3 Lum	28 ± 5 Lum	Survival (%) of cells with compound and carboplatin (200 μM) ([1]; compound 10 μM + carboplatin 200 μM): 92.6 ± 3.5%; survival (%) of cells with compound alone [1, 3]: 98.4 ± 2.4%; Survival (%) of cells with compound and carboplatin (200 μM) ([1]; compound 20 μM + carboplatin 200 μM): 75.1 ± 3.9%; survival (%) of cells with compound alone [1, 4]: 78.4 ± 3.8%; Survival (%) of cells with compound and carboplatin (200 μM) ([1]; compound 50 μM + carboplatin 200 μM): 40.6 ± 3.0%; survival (%) of cells with compound alone [1, 5]: 61.6 ± 4.4%; caspase-3/7 activity (Lum), compound alone ([2]; Table 2, compound 20 μM): 28 ± 5 Lum; caspase-3/7 activity (Lum) with compound and cisplatin (20 μM) ([2]; compound 5 μM + cisplatin 20 μM): 22 ± 2 Lum; caspase-3/7 activity (Lum) with compound alone ([2]; compound 5 μM): 10 ± 1 Lum; caspase-3/7 activity (Lum) with compound and cisplatin (20 μM) [2, 6]: 24 ± 3 Lum; caspase-3/7 activity (Lum) with compound alone ([2]; compound 10 μM): 10 ± 1 Lum; caspase-3/7 activity (Lum) with compound and cisplatin (20 μM) [2, 7]: 84 ± 3 Lum; caspase-3/7 activity (Lum) with compound alone ([2]; compound 20 μM): 24 ± 2 Lum
Cc1cccc(-n2c(=S)[nH]c3cc(Cl)ccc3c2=O)c1C [Compound 1-21]	102 ± 1.4%	100 ± 1.5%	84.9 ± 2.9%	90.8 ± 1.4%	63.1 ± 6.8%	26.7 ± 2.0%				active	90 ± 6 Lum	17 ± 3 Lum	caspase-3/7 activity (Lum), compound alone ([2]; Table 2, compound 20 μM): 17 ± 3 Lum; Caspase-3/7 activity upon combination with cisplatin compared to cisplatin alone or compound alone [2]: increase in Caspase-3/7 activity
O=C1NC(=S)NC(=O)C1=Cc1c[nH]c2ccccc12 [Compound 2-7]				91.9 ± 14.0%	76.1 ± 6.6%	39.4 ± 5.2%	41 ± 3 Lum	25 ± 1 Lum	25 ± 1 Lum	active			viability at 10 µM [1]: 97 ± 1.5%; viability at 20 µM [1]: 93.3 ± 3.6%; viability at 50 µM [1]: 47.2 ± 1.8%
N#Cc1c(-c2ccc(Br)cc2)[nH]c(=S)[nH]c1=O [Compound 1-26]											26 ± 1 Lum	14 ± 3 Lum	
CC(C)C(=O)NC(=S)Nc1nc2ccc(Cl)cc2s1 [Compound 2-33]	84.8 ± 4.1%	77.9 ± 1.1%	65 ± 6.4%	92.5 ± 4.8%	70.4 ± 4.9%	58.6 ± 7.4%	23 ± 3 Lum	11 ± 2 Lum	11 ± 2 Lum	active			response in the CellTiter-Blue cell viability assay [1]: positive response; activity in the Caspase-3/7 activity assay [2]: lack of activity
O=C(NC(=S)NCC1CCCO1)c1ccccc1 (stereo not shown) [Compound 2-9]							20 ± 2 Lum	8 ± 1 Lum					
O=c1[nH]c2ccccc2c(=O)n1CCCN1CCOCC1 [Compound 1-32]											20 ± 1 Lum	13 ± 1 Lum	
Cc1[nH]c(=S)[nH]c(=O)c1CCC(=O)N1CCOCC1 [Compound 1-10]											21 ± 2 Lum	14 ± 1 Lum	
O=C(NC(=S)Nc1ccccc1F)c1ccco1 [Compound 2-21]							25 ± 1 Lum	8 ± 1 Lum					
NC(=O)c1ccccc1NC(=S)NC(=O)c1ccco1 [Compound 2-29]							19 ± 3 Lum	7 ± 1 Lum					
CC(C)C(=O)NC(=S)Nc1ccc(F)c(Cl)c1 [Compound 2-11]							17 ± 2 Lum	9 ± 1 Lum					
